Measurements: ChEMBL document CHEMBL1134849, “Substituted acrylamides as factor Xa inhibitors: improving bioavailability by P1 modification” (Bioorg Med Chem Lett, 2002)
Values belong to the compound of their own block, whether it stands above or below them.

What was measured:
Coagulation factor X [1] = target: T1, Coagulation factor X (Homo sapiens, UniProt P00742); experiment: Concentration required for inhibition of Coagulation factor X
[2] = Plasma clearance in rats; type: ADME, organism-based; settings: rat
[3] = Oral bioavailability in rat; type: ADME, organism-based; settings: in vivo
[4] = Volume distribution in rats; type: ADME, organism-based; settings: rat, in vivo; read-out: Vz
[5] = Half life in rats in hours; type: ADME, organism-based; settings: rat, in vivo
[6] = Volume distribution in dogs; type: ADME, organism-based, Canis lupus familiaris; settings: dog, in vivo; read-out: Vz
[7] = Oral bioavailability in dog; type: ADME, organism-based, Canis lupus familiaris; settings: in vivo
[8] = Half life in dogs in hours; type: ADME, organism-based, Canis lupus familiaris; settings: dog, in vivo
[9] = Plasma clearance in dogs; type: ADME, organism-based, Canis lupus familiaris; settings: dog
Coagulation factor X [10] = target: T1, Coagulation factor X; experiment: Binding affinity towards Coagulation factor X
Serine protease 1 = Serine protease 1 (Homo sapiens, UniProt P07477); experiment: Concentration required for inhibition of trypsin
Chain of Serine protease 1 (P07477 whole entry): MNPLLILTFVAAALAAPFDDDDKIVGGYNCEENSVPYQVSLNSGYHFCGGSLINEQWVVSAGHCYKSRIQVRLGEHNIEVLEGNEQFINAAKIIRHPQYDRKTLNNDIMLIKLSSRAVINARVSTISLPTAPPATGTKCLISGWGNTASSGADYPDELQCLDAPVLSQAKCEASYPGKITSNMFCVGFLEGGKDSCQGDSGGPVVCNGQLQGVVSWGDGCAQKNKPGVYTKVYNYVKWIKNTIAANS

Prothrombin = Prothrombin (Homo sapiens, UniProt P00734); experiment: Concentration required for inhibition of Coagulation factor II
Oryctolagus cuniculus = organism: Oryctolagus cuniculus; experiment: Antithrombotic activity was evaluated by using rabbit PT assay; type: functional
[11] = Oral bioavailability in ratrs; type: ADME, organism-based; settings: rat, in vivo

T1 sequence (P00742 41-179 limits assumed): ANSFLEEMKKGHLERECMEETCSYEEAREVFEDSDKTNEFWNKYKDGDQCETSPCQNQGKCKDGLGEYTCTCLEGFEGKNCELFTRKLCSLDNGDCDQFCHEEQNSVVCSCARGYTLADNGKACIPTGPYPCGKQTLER
T1 sequence (P00742 235-488 limits assumed): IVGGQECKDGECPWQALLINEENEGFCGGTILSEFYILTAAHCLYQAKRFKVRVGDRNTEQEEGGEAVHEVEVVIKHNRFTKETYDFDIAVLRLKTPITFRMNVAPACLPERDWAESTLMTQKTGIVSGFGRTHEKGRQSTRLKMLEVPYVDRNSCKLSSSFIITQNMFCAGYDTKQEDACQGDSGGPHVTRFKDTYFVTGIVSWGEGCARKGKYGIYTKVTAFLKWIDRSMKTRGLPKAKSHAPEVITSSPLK

- IC50 (Coagulation factor X [1]): > 11000 nM
SMILES: C/C(=C(\F)C(=O)Nc1ccc(-c2ccccc2S(N)(=O)=O)cc1Br)c1cc(Br)ccc1N

- clearance [2]: 19.1 mL/min/kg
- bioavailability [3]: 13%
- Vd [4]: 2.7 L/kg
- IC50 (Coagulation factor X [1]): 14 nM
- half-life [5]: 1.64 h
SMILES: C/C(=C(\F)C(=O)Nc1ccc(-c2ccccc2S(N)(=O)=O)cn1)c1ccc2ccnc(N)c2c1

- IC50 (Coagulation factor X [1]): > 11000 nM
SMILES: C/C(=C(\F)C(=O)Nc1ccc(-c2ccccc2S(N)(=O)=O)cc1)c1cccc(N)c1

- IC50 (Coagulation factor X [1]): > 11000 nM
SMILES: C/C(=C(/F)C(=O)Nc1ccc(-c2ccccc2S(N)(=O)=O)cc1)c1ccc2nc(N)nc(N)c2c1

- Vd [6]: 6.8 L/kg
- clearance [2]: 48.7 mL/min/kg
- bioavailability [7]: 36.7%
- bioavailability [3]: 6.8%
- Vd [4]: 10 L/kg
- half-life [8]: 7.1 h
- IC50 (Coagulation factor X [1]): 14 nM
- clearance [9]: 11.4 mL/min/kg
- half-life [5]: 2.38 h
SMILES: C/C(=C(\F)C(=O)Nc1ccc(-c2ccccc2S(N)(=O)=O)cc1)c1ccc2ccnc(N)c2c1

- IC50 (Coagulation factor X [1]): 140 nM
SMILES: C/C(=C(\F)C(=O)Nc1ccc(-c2ccccc2S(N)(=O)=O)cc1F)c1cccc(C(=N)S)c1

- IC50 (Coagulation factor X [1]): 270 nM
SMILES: C/C(=C(/F)C(=O)Nc1ccc(-c2ccccc2S(N)(=O)=O)cc1)c1ccc2ncnc(N)c2c1

- IC50 (Coagulation factor X [1]): 9500 nM
SMILES: C/C(=C(\F)C(=O)Nc1ccc(-c2ccccc2S(N)(=O)=O)cc1)c1cc(Cl)ccc1C#N

- IC50 (Coagulation factor X [1]): 7 nM
SMILES: C/C(=C(\F)C(=O)Nc1ccc(-c2ccncc2S(C)(=O)=O)cc1)c1ccc2ccnc(N)c2c1

- IC50 (Coagulation factor X [1]): 190 nM
SMILES: C/C(=C(\F)C(=O)Nc1ccc(-c2ccccc2C#N)cc1)c1ccc2ccnc(N)c2c1

- Ki (Coagulation factor X [10]): 1.6 nM
- clearance [2]: 25.3 mL/min/kg
- bioavailability [3]: 13.5%
- Vd [4]: 3.7 L/kg
- IC50 (Serine protease 1): 9700 nM
- IC50 (Coagulation factor X [1]): 5 nM
- IC50 (Prothrombin): 6300 nM
- half-life [5]: 1.7 h
SMILES: C/C(=C(\F)C(=O)Nc1ccc(-c2ccccc2S(N)(=O)=O)cc1F)c1ccc2ccnc(N)c2c1
- Activity (Oryctolagus cuniculus): 6.3 µM

- IC50 (Coagulation factor X [1]): 880 nM
SMILES: C/C(=C(/F)C(=O)Nc1ccc(-c2ccccc2S(N)(=O)=O)cc1)c1ccc2ccnc(N)c2c1

- IC50 (Coagulation factor X [1]): 5700 nM
SMILES: COc1ccc(/C(C)=C(/F)C(=O)Nc2ccc(-c3ccccc3S(N)(=O)=O)cc2)c(C#N)c1

- clearance [2]: 56.4 mL/min/kg
- bioavailability [3]: 1.5%
- Vd [4]: 7.4 L/kg
- IC50 (Coagulation factor X [1]): 78 nM
- half-life [5]: 1.51 h
SMILES: Nc1nccc2ccc(/C=C\C(=O)Nc3ccc(-c4ccccc4S(N)(=O)=O)cc3)cc12

- IC50 (Coagulation factor X [1]): 1800 nM
SMILES: C/C(Cc1ccc(Br)cc1)=C(\F)C(=O)Nc1ccc(-c2ccccc2S(N)(=O)=O)cc1

- Ki (Coagulation factor X [10]): 1.1 nM
- clearance [2]: 6.7 mL/min/kg
- bioavailability [11]: 35.1%
- Vd [4]: 0.8 L/kg
- IC50 (Serine protease 1): > 11000 nM
- IC50 (Coagulation factor X [1]): 11 nM
- IC50 (Prothrombin): 5400 nM
- half-life [5]: 1.43 h
SMILES: C/C(=C(\F)C(=O)Nc1ccc(-c2ccccc2S(N)(=O)=O)cc1Cl)c1ccc2ccnc(N)c2c1
- Activity (Oryctolagus cuniculus): 9.4 µM

- IC50 (Coagulation factor X [1]): 2900 nM
SMILES: C/C(=C(\F)C(=O)Nc1ccc(-c2ccccc2S(N)(=O)=O)cc1Br)c1cc(Br)ccc1[N+](=O)[O-]

- Ki (Coagulation factor X [10]): 1.3 nM
- Vd [6]: 5.5 L/kg
- clearance [2]: 4.4 mL/min/kg
- bioavailability [7]: 33.1%
- bioavailability [3]: 30.1%
- Vd [4]: 0.61 L/kg
- half-life [8]: 6 h
- IC50 (Serine protease 1): 2400 nM
- IC50 (Coagulation factor X [1]): 7 nM
- clearance [9]: 10.8 mL/min/kg
- IC50 (Prothrombin): 4800 nM
- half-life [5]: 1.6 h
SMILES: C/C(=C(\F)C(=O)Nc1ccc(-c2ccccc2S(N)(=O)=O)cc1Br)c1ccc2ccnc(N)c2c1
- Activity (Oryctolagus cuniculus): 10.3 µM

- IC50 (Coagulation factor X [1]): 920 nM
SMILES: C/C(=C(\F)C(=O)Nc1ccc(-c2ccccc2S(N)(=O)=O)cc1)c1cccc(C(N)=O)c1

- IC50 (Coagulation factor X [1]): 1500 nM
SMILES: C/C(=C(\F)C(=O)Nc1ccc(-c2ccncc2[S+](C)[O-])cc1F)c1ccc2ccnc(N)c2c1 (configuration not stated)

- IC50 (Coagulation factor X [1]): > 11000 nM
SMILES: C/C(=C(\F)C(=O)Nc1ccc(-c2ccccc2S(N)(=O)=O)cc1)c1cccc(NN)c1

- IC50 (Coagulation factor X [1]): 250 nM
SMILES: C/C(=C(\F)C(=O)Nc1ccc(-c2ccccc2S(N)(=O)=O)cc1)c1cc(N)ccc1[N+](=O)[O-]

- IC50 (Coagulation factor X [1]): 180 nM
SMILES: C/C(=C(\F)C(=O)Nc1ccc(-c2ccnc(C(N)=O)c2)cc1)c1ccc2ccnc(N)c2c1
